Data as given in EP4745137A1 (Gluetacs Therapeutics (Shanghai) Co., Ltd., priority 2023, dated 2025).
pIC50: −log10 of the molar value.

Assays:
[1] = molecular target: T1, human Cereblon WT GST-tagged protein (Homo sapiens, UniProt Q96SW2); assay: CRBN-binding affinity by HTRF (CEREBLON BINDING kit); conditions: HTRF inhibitory activity, CEREBLON BINDING kit; read-out: HTRF IC50
T1 construct: purchased CISBIO 64BDCRBNPEH
Description: The CEREBLON BINDING kits (specification: 10,000 tests; product number: Catalog # 64BDCRBNPEH; CISBIO company) was used to determine the CRBN binding ability of the compounds to be tested through a HTRF method (homogeneous time-resolved fluorescence). The specific methods are as follows: • 1. […] Specifically, diluent #9 (1X) solution was used as the diluent, and multiple concentration gradients were set. […] Then, 2.5 µL of human Cereblon WT GST-tagged protein solution was added to each well. Finally, 5 µL of the thoroughly mixed Thalidomide-Re reagent and GST Eu antibody working solution were added to each of the aforementioned wells. […] The blank control wells were sequentially added with 2.5 µL of diluent #9 (1X) solution, 2.5 µL of binding buffer, and 5 µL of thoroughly mixed Thalidomide-Re reagent and GST Eu antibody working solution. • 4.

[2] = molecular target: T2, GSPT1 (Homo sapiens, UniProt P15170+Q96SW2); assay: Western-blot assay of substrate protein degradation in hPBMCs, GSPT1; type: cell-based; conditions: 24 hours of compound treatment
T2 construct: endogenous in cells; host or cells: hPBMCs (Milecell Biotechnologies)

[3] = molecular target: T3, IKZF2 (Homo sapiens, UniProt Q96SW2+Q9UKS7); assay: Western-blot assay of substrate protein degradation in hPBMCs, IKZF2; type: cell-based; conditions: 24 hours of compound treatment
T3 construct: endogenous in cells; host or cells: hPBMCs (Milecell Biotechnologies)

[4] = molecular target: T4, IKZF3 (Homo sapiens, UniProt Q96SW2+Q9UKT9); assay: Western-blot assay of substrate protein degradation in hPBMCs, IKZF3; type: cell-based; conditions: 24 hours of compound treatment
T4 construct: endogenous in cells; host or cells: hPBMCs (Milecell Biotechnologies)

[5] = molecular target: T5, WEE1 (Homo sapiens, UniProt P30291+Q96SW2); assay: Western-blot assay of substrate protein degradation in hPBMCs, WEE1; type: cell-based; conditions: 24 hours of compound treatment
T5 construct: endogenous in cells; host or cells: hPBMCs (Milecell Biotechnologies)

[6] = molecular target: T6, IKZF1 (Homo sapiens, UniProt Q13422+Q96SW2); assay: Western-blot assay of substrate protein degradation in hPBMCs, IKZF1; type: cell-based; conditions: 24 hours of compound treatment
T6 construct: endogenous in cells; host or cells: hPBMCs (Milecell Biotechnologies)

[7] = molecular target: T7, CK1α (Homo sapiens, UniProt P48729+Q96SW2); assay: Western-blot assay of substrate protein degradation in hPBMCs, CK1α; type: cell-based; conditions: 24 hours of compound treatment
T7 construct: endogenous in cells; host or cells: hPBMCs (Milecell Biotechnologies)

[8] = compounds tested at 50 nM and 500 nM (concentration of the table not stated)
[9] = 50 nM and 500 nM tested (concentration behind the class not stated)

T5 sequence (P30291 whole entry): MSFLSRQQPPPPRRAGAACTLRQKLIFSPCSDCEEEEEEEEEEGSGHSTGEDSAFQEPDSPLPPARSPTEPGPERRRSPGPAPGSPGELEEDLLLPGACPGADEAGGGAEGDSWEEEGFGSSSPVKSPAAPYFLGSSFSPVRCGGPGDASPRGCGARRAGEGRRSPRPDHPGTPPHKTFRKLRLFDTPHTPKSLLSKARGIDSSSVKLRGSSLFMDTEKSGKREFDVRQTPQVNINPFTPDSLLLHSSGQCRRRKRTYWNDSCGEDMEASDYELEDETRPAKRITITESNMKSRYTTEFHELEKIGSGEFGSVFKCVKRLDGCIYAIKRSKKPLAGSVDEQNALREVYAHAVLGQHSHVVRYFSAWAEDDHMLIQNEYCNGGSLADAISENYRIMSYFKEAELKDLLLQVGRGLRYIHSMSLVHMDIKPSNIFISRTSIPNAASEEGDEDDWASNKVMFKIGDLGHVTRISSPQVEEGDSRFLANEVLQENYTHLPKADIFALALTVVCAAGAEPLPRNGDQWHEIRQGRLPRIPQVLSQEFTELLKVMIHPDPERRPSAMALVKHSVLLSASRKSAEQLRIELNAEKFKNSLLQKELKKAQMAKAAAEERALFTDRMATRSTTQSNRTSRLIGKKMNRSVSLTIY
T5 sequence (Q96SW2 whole entry): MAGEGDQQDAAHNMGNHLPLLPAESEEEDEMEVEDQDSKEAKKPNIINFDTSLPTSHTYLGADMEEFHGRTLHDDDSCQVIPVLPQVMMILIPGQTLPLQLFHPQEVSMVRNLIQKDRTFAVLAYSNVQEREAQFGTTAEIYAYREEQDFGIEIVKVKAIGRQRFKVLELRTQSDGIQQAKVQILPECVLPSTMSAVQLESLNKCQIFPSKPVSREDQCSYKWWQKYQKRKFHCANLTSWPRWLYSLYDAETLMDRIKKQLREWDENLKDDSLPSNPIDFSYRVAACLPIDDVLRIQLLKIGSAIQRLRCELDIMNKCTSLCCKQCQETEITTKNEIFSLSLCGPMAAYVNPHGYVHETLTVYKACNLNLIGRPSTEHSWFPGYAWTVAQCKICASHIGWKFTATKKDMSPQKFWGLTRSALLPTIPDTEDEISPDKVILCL
T5 sequence (Q16531 whole entry partner): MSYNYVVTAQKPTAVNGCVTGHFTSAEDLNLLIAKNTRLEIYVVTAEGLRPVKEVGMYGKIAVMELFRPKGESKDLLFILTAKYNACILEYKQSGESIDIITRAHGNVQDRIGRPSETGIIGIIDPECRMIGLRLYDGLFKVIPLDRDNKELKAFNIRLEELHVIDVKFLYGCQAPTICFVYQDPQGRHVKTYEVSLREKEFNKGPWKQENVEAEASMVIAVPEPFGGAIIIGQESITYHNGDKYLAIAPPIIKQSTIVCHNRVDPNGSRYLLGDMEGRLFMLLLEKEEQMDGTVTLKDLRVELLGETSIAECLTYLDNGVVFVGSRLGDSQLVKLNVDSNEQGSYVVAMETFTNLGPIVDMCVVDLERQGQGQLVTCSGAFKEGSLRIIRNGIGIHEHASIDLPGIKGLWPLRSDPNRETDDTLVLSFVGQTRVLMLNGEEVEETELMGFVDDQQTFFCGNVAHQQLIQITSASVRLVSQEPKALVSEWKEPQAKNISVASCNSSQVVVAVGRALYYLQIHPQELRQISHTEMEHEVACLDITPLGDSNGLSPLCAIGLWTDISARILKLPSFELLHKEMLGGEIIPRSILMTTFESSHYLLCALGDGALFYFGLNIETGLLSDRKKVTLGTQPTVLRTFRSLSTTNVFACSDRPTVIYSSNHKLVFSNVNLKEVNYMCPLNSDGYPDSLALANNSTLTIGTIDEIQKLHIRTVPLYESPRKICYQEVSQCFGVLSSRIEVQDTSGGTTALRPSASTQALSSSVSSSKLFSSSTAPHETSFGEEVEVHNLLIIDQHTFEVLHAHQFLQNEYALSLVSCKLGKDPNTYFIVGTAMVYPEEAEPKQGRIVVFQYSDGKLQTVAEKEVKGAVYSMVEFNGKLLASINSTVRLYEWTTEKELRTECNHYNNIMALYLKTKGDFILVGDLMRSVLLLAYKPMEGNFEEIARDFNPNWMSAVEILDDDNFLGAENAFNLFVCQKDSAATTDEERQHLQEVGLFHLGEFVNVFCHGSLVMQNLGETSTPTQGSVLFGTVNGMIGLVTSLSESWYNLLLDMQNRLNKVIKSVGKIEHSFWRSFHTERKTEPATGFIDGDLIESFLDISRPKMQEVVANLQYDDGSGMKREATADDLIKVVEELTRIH
T3 sequence (Q9UKS7 whole entry): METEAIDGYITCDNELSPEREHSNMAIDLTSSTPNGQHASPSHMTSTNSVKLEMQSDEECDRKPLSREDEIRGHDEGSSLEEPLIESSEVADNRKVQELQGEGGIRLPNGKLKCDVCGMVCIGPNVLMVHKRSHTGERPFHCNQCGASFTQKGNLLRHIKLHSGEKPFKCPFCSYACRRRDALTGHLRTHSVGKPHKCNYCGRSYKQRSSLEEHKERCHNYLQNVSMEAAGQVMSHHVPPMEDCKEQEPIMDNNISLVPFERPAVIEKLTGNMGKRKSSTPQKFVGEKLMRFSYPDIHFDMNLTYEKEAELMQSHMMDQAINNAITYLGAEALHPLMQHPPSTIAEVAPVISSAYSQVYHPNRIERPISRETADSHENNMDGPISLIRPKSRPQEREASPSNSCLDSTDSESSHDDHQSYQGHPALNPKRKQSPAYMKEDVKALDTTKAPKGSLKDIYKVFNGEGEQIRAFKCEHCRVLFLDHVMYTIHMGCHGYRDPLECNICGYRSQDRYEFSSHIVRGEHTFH
T3 sequence (Q96SW2 whole entry): as the sequence (Q96SW2 whole entry) above
T3 sequence (Q16531 whole entry partner): as the sequence (Q16531 whole entry partner) above
T6 sequence (Q13422 whole entry): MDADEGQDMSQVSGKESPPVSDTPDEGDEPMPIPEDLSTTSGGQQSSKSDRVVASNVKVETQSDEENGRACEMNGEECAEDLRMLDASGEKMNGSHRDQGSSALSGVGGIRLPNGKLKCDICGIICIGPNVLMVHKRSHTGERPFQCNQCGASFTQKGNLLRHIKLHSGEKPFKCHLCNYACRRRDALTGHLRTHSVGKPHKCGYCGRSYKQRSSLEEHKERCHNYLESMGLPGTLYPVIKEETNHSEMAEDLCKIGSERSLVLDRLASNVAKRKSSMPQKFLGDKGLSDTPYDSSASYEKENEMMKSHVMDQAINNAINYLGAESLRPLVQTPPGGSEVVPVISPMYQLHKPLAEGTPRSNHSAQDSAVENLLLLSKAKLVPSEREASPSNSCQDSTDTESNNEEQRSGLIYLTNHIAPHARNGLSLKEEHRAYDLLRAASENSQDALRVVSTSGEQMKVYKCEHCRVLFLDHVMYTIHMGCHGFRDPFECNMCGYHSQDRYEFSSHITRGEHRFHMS
T6 sequence (Q96SW2 whole entry): as the sequence (Q96SW2 whole entry) above
T6 sequence (Q16531 whole entry partner): as the sequence (Q16531 whole entry partner) above
T2 sequence (P15170 whole entry): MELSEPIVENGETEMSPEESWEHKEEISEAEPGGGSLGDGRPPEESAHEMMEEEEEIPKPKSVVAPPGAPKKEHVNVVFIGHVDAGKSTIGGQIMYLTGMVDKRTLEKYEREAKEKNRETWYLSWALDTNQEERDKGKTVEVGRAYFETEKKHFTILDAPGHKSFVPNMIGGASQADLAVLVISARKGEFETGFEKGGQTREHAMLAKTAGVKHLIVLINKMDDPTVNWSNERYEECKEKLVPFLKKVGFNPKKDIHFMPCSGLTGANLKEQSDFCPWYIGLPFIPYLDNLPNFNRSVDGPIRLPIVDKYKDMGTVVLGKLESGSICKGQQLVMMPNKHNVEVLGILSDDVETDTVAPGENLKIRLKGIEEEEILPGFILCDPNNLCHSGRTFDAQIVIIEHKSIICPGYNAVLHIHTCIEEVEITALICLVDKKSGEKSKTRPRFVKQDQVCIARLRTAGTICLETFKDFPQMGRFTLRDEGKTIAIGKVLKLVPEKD
T2 sequence (Q96SW2 whole entry): as the sequence (Q96SW2 whole entry) above
T2 sequence (Q16531 whole entry partner): as the sequence (Q16531 whole entry partner) above
T7 sequence (P48729 whole entry): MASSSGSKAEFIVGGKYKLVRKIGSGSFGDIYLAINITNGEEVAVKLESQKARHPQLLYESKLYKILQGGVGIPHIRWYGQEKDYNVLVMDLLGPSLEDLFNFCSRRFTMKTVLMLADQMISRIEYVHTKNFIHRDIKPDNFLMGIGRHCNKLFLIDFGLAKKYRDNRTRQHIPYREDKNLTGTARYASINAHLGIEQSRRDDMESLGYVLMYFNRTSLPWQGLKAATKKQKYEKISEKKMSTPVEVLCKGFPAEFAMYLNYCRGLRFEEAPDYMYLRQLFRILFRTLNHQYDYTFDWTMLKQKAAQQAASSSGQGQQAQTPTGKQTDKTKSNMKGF
T7 sequence (Q96SW2 whole entry): as the sequence (Q96SW2 whole entry) above
T7 sequence (Q16531 whole entry partner): as the sequence (Q16531 whole entry partner) above
T1 sequence (Q96SW2 whole entry): as the sequence (Q96SW2 whole entry) above

SMILES | pIC50 [1] | GSPT1 substrate protein remaining % [2, 8] | IKZF2 substrate protein remaining % [3, 8] | IKZF3 substrate protein remaining % [4, 8] | Weel substrate protein remaining % [5, 8] | IKZF 1 substrate protein remaining % [6, 8] | CK1a substrate protein remaining % [7, 8] | GSPT1 substrate protein remaining % [2, 9] | IKZF2 substrate protein remaining % [3, 9] | IKZF3 substrate protein remaining % [4, 9] | Weel substrate protein remaining % [5, 9] | IKZF 1 substrate protein remaining % [6, 9] | CK1a substrate protein remaining % [7, 9]
O=C1CCC(N2Cc3cc(CN4CC(N5CCc6cc(F)ccc65)C4)ccc3C2=O)C(=O)N1 (stereo not shown) [GT-04677, 3-(5-((3-(5-fluoroindolin-1-yl)azetidin-1-yl)methyl)-1-oxoisoindolin-2-yl)piperidine-2,6-dione] | > 6.30 | A (0% ≤ substrate protein remaining % ≤ 80%) | A (0% ≤ substrate protein remaining % ≤ 80%) | A (0% ≤ substrate protein remaining % ≤ 80%) | A (0% ≤ substrate protein remaining % ≤ 80%) | A (0% ≤ substrate protein remaining % ≤ 80%) | B (80%< substrate protein remaining %≤ 100%) | – | – | – | – | – | –
O=C1CCC(N2Cc3cc(CN4CCN(c5ccnc(F)c5F)CC4)ccc3C2=O)C(=O)N1 (stereo not shown) [GT-04543, 3-(5-((4-(2,3-difluoropyridin-4-yl)piperazin-1-yl)methyl)-1-oxoisoindolin-2-yl)piperidine-2,6-dione] | 6.00 to 6.30 | A (0% ≤ substrate protein remaining % ≤ 80%) | A (0% ≤ substrate protein remaining % ≤ 80%) | A (0% ≤ substrate protein remaining % ≤ 80%) | A (0% ≤ substrate protein remaining % ≤ 80%) | A (0% ≤ substrate protein remaining % ≤ 80%) | B (80%< substrate protein remaining %≤ 100%) | – | – | – | – | – | –
Cc1nc(C2=CCN(Cc3ccc4c(c3)CN(C3CCC(=O)NC3=O)C4=O)CC2)c2c(-c3ccccc3)csc2n1 (stereo not shown) [GT-05102, 3-(5-((4-(2-methyl-5-phenylthieno[2,3-d]pyrimidin-4-yl)-3,6-dihydropyridin-1(2H)-yl)methyl)-1-oxoisoindolin-2-yl)piperidine-2,6-dione] | > 6.30 | A (0% ≤ substrate protein remaining % ≤ 80%) | A (0% ≤ substrate protein remaining % ≤ 80%) | B (80%< substrate protein remaining %≤ 100%) | A (0% ≤ substrate protein remaining % ≤ 80%) | A (0% ≤ substrate protein remaining % ≤ 80%) | B (80%< substrate protein remaining %≤ 100%) | – | – | – | – | – | –
CC1(C)[C@@H]2CC[C@]1(CS(=O)(=O)NCc1ccc3c(c1)CN(C1CCC(=O)NC1=O)C3=O)C(=O)C2 (stereo partly shown) [GT-06927] | 6.00 to 6.30 | – | – | – | – | – | – | B (80%< substrate protein remaining %≤ 100%) | B (80%< substrate protein remaining %≤ 100%) | B (80%< substrate protein remaining %≤ 100%) | B (80%< substrate protein remaining %≤ 100%) | B (80%< substrate protein remaining %≤ 100%) | A (0% ≤ substrate protein remaining % ≤ 80%)
Cc1cc2c(N3CCN(Cc4ccc5c(c4)CN(C4CCC(=O)NC4=O)C5=O)CC3)ncnc2s1 (stereo not shown) [GT-04680, 3-(5-((4-(6-methylthieno[2,3-d]pyrimidin-4-yl)piperazin-1-yl)methyl)-1-oxoisoindolin-2-yl)piperidine-2,6-dione] | 6.00 to 6.30 | A (0% ≤ substrate protein remaining % ≤ 80%) | B (80%< substrate protein remaining %≤ 100%) | B (80%< substrate protein remaining %≤ 100%) | B (80%< substrate protein remaining %≤ 100%) | B (80%< substrate protein remaining %≤ 100%) | A (0% ≤ substrate protein remaining % ≤ 80%) | – | – | – | – | – | –
CC(C)c1cc2c(N3CCN(Cc4ccc5c(c4)C(=O)N(C4CCC(=O)NC4=O)C5=O)CC3)ncnc2s1 (stereo not shown) [GT-06306, 2-(2,6-dioxopiperidin-3-yl)-5-((4-(6-isopropylthieno[2,3-d]pyrimidin-4-yl)piperazin-1-yl)methyl)isoindoline-1,3-dione] | 5.72 to 5.82 | – | – | – | – | – | – | A (0% ≤ substrate protein remaining % ≤ 80%) | A (0% ≤ substrate protein remaining % ≤ 80%) | A (0% ≤ substrate protein remaining % ≤ 80%) | B (80%< substrate protein remaining %≤ 100%) | A (0% ≤ substrate protein remaining % ≤ 80%) | A (0% ≤ substrate protein remaining % ≤ 80%)
O=C1CCC(N2Cc3cc(CN4CCN(c5ccncc5Cl)CC4)ccc3C2=O)C(=O)N1 (stereo not shown) [GT-04481, 3-(5-((4-(3-chloropyridin-4-yl)piperazin-1-yl)methyl)-1-oxoisoindolin-2-yl)piperidine-2,6-dione] | 6.00 to 6.30 | A (0% ≤ substrate protein remaining % ≤ 80%) | A (0% ≤ substrate protein remaining % ≤ 80%) | B (80%< substrate protein remaining %≤ 100%) | A (0% ≤ substrate protein remaining % ≤ 80%) | A (0% ≤ substrate protein remaining % ≤ 80%) | A (0% ≤ substrate protein remaining % ≤ 80%) | – | – | – | – | – | –
Cc1csc2ncnc(N3CCN(Cc4ccc5c(c4)CN(C4CCC(=O)NC4=O)C5=O)CC3)c12 (stereo not shown) [GT-04679, 3-(5-((4-(5-methylthieno[2,3-d]pyrimidin-4-yl)piperazin-1-yl)methyl)-1-oxoisoindolin-2-yl)piperidine-2,6-dione] | 6.00 to 6.30 | A (0% ≤ substrate protein remaining % ≤ 80%) | B (80%< substrate protein remaining %≤ 100%) | B (80%< substrate protein remaining %≤ 100%) | B (80%< substrate protein remaining %≤ 100%) | B (80%< substrate protein remaining %≤ 100%) | A (0% ≤ substrate protein remaining % ≤ 80%) | – | – | – | – | – | –
Cc1nc(N2CCN(Cc3ccc4c(c3)C(=O)N(C3CCC(=O)NC3=O)C4=O)CC2)c2c3c(sc2n1)CCCC3 (stereo not shown) [GT-06348, 2-(2,6-dioxopiperidin-3-yl)-5-((4-(2-methyl-5,6,7,8-tetrahydrobenzo[4,5]thieno[2,3-d]pyrimidin-4-yl)piperazin-1-yl)methyl)isoindoline-1,3-dione] | 5.82 to 6.00 | – | – | – | – | – | – | A (0% ≤ substrate protein remaining % ≤ 80%) | A (0% ≤ substrate protein remaining % ≤ 80%) | A (0% ≤ substrate protein remaining % ≤ 80%) | A (0% ≤ substrate protein remaining % ≤ 80%) | A (0% ≤ substrate protein remaining % ≤ 80%) | A (0% ≤ substrate protein remaining % ≤ 80%)
O=C1CCC(N2Cc3cc(CN4CCN(c5nc6c(c(N7CCOCC7)n5)SCC6)CC4)ccc3C2=O)C(=O)N1 (stereo not shown) [GT-04694, 3-(5-((4-(4-morpholino-6,7-dihydrothieno[3,2-d]pyrimidin-2-yl)piperazin-1-yl)methyl)-1-oxoisoindolin-2-yl)piperidine-2,6-dione] | > 6.30 | A (0% ≤ substrate protein remaining % ≤ 80%) | A (0% ≤ substrate protein remaining % ≤ 80%) | A (0% ≤ substrate protein remaining % ≤ 80%) | A (0% ≤ substrate protein remaining % ≤ 80%) | B (80%< substrate protein remaining %≤ 100%) | B (80%< substrate protein remaining %≤ 100%) | – | – | – | – | – | –
